Patent publication US12122761B2, “2-azaspiro[3.4]octane derivatives as M4 agonists” (NOVARTIS AG, priority 2019, dated 2024)

Experiments:
[1] = target: T1, human cloned CHRM4 receptor (M4_CHO cells) (Homo sapiens, UniProt P08173); test: CHRM4 Ca++ Flux Assay (agonist mode, FDSS 7000EX); assay type: cell-based; details: for M4 FDSS PA: Percent Activity; for EC50: geometric mean if tested more than once, read-out: M4 FDSS EC50
T1 construct: expressed in transfected cells; host or cells: CHO-K1
T1 sequence (P08173 1-479): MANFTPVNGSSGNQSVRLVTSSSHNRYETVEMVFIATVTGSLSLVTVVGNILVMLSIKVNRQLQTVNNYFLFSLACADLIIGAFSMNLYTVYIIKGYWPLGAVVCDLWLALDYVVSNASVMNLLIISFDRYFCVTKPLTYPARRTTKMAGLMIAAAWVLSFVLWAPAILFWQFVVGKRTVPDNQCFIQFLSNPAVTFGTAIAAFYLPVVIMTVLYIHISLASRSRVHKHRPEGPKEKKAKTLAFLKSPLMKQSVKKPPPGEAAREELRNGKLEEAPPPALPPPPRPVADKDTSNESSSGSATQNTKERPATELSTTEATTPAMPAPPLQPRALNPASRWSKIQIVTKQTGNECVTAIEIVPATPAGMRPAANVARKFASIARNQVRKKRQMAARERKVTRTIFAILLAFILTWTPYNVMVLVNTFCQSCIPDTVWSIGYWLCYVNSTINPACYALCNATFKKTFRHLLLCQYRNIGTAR
How it was run: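 M4_CHO cells loaded with a Ca++ dye for at least 1 h were held 60 min at room temperature in HEPES/probenecid buffer with 20 μM ATP. Ca++ flux after an 11-point compound dose, in triplicate and agonist mode, was recorded over 3 min. Four-parameter fits gave curves, with activity expressed relative to the Carbachol EC100.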

[2] = target: T2, human cloned CHRM3 receptor (M3_CHO cells) (Homo sapiens, UniProt P20309); test: CHRM3 Ca++ Flux Assay (agonist mode, FDSS 7000EX); assay type: cell-based; details: for M3 FDSS PA: Percent Activity measured to EC100 of Carbachol; for EC50: agonist mode, geometric mean if tested more than once, read-out: M3 FDSS EC50
T2 construct: expressed in transfected cells; host or cells: CHO-K1
T2 sequence (P20309 whole entry): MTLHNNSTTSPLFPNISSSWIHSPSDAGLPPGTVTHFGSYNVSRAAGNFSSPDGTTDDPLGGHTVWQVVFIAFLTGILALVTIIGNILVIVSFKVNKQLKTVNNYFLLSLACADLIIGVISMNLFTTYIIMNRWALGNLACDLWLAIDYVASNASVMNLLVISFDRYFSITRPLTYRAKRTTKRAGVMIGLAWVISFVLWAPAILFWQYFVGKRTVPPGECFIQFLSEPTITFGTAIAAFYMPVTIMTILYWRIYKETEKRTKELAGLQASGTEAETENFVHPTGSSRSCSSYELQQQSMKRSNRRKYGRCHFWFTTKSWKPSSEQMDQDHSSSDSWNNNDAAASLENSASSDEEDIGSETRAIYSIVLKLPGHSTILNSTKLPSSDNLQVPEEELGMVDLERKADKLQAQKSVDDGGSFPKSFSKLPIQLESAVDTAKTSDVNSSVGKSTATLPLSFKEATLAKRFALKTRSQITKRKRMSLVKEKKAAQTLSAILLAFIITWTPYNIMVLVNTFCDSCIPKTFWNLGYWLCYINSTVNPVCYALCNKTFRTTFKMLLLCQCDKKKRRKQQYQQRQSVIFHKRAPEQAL
How it was run: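 Agonist responses are measured as calcium mobilization in CHO-K1 cells expressing human M3 or M5, tested over an 11-point dose range in triplicate. Percent activity is normalised to carbachol at EC100.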

Compound	M4 FDSS PA [1]	EC50 [1]	M3 FDSS PA [2]	EC50 [2]
O=C(N1CC2(CC[C@@H](N3CCC(c4cc(F)ccc4OC4CCOCC4)CC3)C2)C1)C1(F)CC1 (single isomer, unassigned) [Example 9C, (R)-(6-(4-(5-fluoro-2-((tetrahydro-2H-pyran-4-yl)oxy)phenyl)piperidin-1-yl)-2-azaspiro[3.4]octan-2-yl)(1-fluorocyclopropyl)methanone or (S)-(6-(4-(5-fluoro-2-((tetrahydro-2H-pyran-4-yl)oxy)phenyl)piperidin-1-yl)-2-azaspiro[3.4]octan-2-yl)(1-fluorocyclopropyl)methanone]	54%	1 nM	0%	> 25000 nM
O=C(N1CC2(CC[C@@H](N3CCC(c4cc(F)ccc4OC4CCOCC4)CC3)C2)C1)C1(F)CC1 (single isomer, unassigned) [Example 9D, (R)-(6-(4-(5-fluoro-2-((tetrahydro-2H-pyran-4-yl)oxy)phenyl)piperidin-1-yl)-2-azaspiro[3.4]octan-2-yl)(1-fluorocyclopropyl)methanone or (S)-(6-(4-(5-fluoro-2-((tetrahydro-2H-pyran-4-yl)oxy)phenyl)piperidin-1-yl)-2-azaspiro[3.4]octan-2-yl)(1-fluorocyclopropyl)methanone]	43%	75 nM	0%	> 25000 nM
O=C(N1CC2(CC[C@@H](N3CCC(c4ccccc4OC4CCOCC4)CC3)C2)C1)C1(F)CC1 (single isomer, unassigned) [Example 9E, (R)-(1-fluorocyclopropyl)(6-(4-(2-((tetrahydro-2H-pyran-4-yl)oxy)phenyl)piperidin-1-yl)-2-azaspiro[3.4]octan-2-yl)methanone or (S)-(1-fluorocyclopropyl)(6-(4-(2-((tetrahydro-2H-pyran-4-yl)oxy)phenyl)piperidin-1-yl)-2-azaspiro[3.4]octan-2-yl)methanone]	55%	1 nM	0%	> 25000 nM
O=C(N1CC2(CC[C@@H](N3CCC(c4ccccc4OC4CCOCC4)CC3)C2)C1)C1(F)CC1 (single isomer, unassigned) [Example 9F, (R)-(1-fluorocyclopropyl)(6-(4-(2-((tetrahydro-2H-pyran-4-yl)oxy)phenyl)piperidin-1-yl)-2-azaspiro[3.4]octan-2-yl)methanone or (S)-(1-fluorocyclopropyl)(6-(4-(2-((tetrahydro-2H-pyran-4-yl)oxy)phenyl)piperidin-1-yl)-2-azaspiro[3.4]octan-2-yl)methanone]	47%	156 nM	0%	> 25000 nM
O=C(N1CC2(CC[C@@H](N3CCC(c4ccccc4C4(O)CCOCC4)CC3)C2)C1)C1(F)CC1 (single isomer, unassigned) [Example 9G, (R)-(1-fluorocyclopropyl)(6-(4-(2-(4-hydroxytetrahydro-2H-pyran-4-yl)phenyl)piperidin-1-yl)-2-azaspiro[3.4]octan-2-yl)methanone or (S)-(1-fluorocyclopropyl)(6-(4-(2-(4-hydroxytetrahydro-2H-pyran-4-yl)phenyl)piperidin-1-yl)-2-azaspiro[3.4]octan-2-yl)methanone]	14%	76 nM	0%	> 25000 nM
O=C(N1CC2(CC[C@@H](N3CCC(c4ccccc4C4(O)CCOCC4)CC3)C2)C1)C1(F)CC1 (single isomer, unassigned) [Example 9H, (R)-(1-fluorocyclopropyl)(6-(4-(2-(4-hydroxytetrahydro-2H-pyran-4-yl)phenyl)piperidin-1-yl)-2-azaspiro[3.4]octan-2-yl)methanone or (S)-(1-fluorocyclopropyl)(6-(4-(2-(4-hydroxytetrahydro-2H-pyran-4-yl)phenyl)piperidin-1-yl)-2-azaspiro[3.4]octan-2-yl)methanone]	0%	> 25000 nM	0%	> 25000 nM
O=C(N1CC2(CC[C@@H](N3CCC(c4cc(F)ccc4C4(O)CCOCC4)CC3)C2)C1)C1(F)CC1 (single isomer, unassigned) [Example 9I, (R)-(6-(4-(5-fluoro-2-(4-hydroxytetrahydro-2H-pyran-4-yl)phenyl)piperidin-1-yl)-2-azaspiro[3.4]octan-2-yl)(1-fluorocyclopropyl)methanone or (S)-(6-(4-(5-fluoro-2-(4-hydroxytetrahydro-2H-pyran-4-yl)phenyl)piperidin-1-yl)-2-azaspiro[3.4]octan-2-yl)(1-fluorocyclopropyl)methanone]	17%	15 nM	0%	> 25000 nM
O=C(N1CC2(CC[C@@H](N3CCC(c4cc(F)ccc4C4(O)CCOCC4)CC3)C2)C1)C1(F)CC1 (single isomer, unassigned) [Example 9J, (R)-(6-(4-(5-fluoro-2-(4-hydroxytetrahydro-2H-pyran-4-yl)phenyl)piperidin-1-yl)-2-azaspiro[3.4]octan-2-yl)(1-fluorocyclopropyl)methanone or (S)-(6-(4-(5-fluoro-2-(4-hydroxytetrahydro-2H-pyran-4-yl)phenyl)piperidin-1-yl)-2-azaspiro[3.4]octan-2-yl)(1-fluorocyclopropyl)methanone]	1%	241 nM	0%	> 25000 nM
O=C(N1CC2(CC[C@@H](N3CCC(c4cc(F)ccc4C4CCOCC4)CC3)C2)C1)C1(F)CC1 (single isomer, unassigned) [Example 9K, (R)-(6-(4-(5-fluoro-2-(tetrahydro-2H-pyran-4-yl)phenyl)piperidin-1-yl)-2-azaspiro[3.4]octan-2-yl)(1-fluorocyclopropyl)methanone or (S)-(6-(4-(5-fluoro-2-(tetrahydro-2H-pyran-4-yl)phenyl)piperidin-1-yl)-2-azaspiro[3.4]octan-2-yl)(1-fluorocyclopropyl)methanone]	56%	1 nM	−1%	> 25000 nM
O=C(N1CC2(CC[C@@H](N3CCC(c4cc(F)ccc4C4CCOCC4)CC3)C2)C1)C1(F)CC1 (single isomer, unassigned) [Example 9L, (R)-(6-(4-(5-fluoro-2-(tetrahydro-2H-pyran-4-yl)phenyl)piperidin-1-yl)-2-azaspiro[3.4]octan-2-yl)(1-fluorocyclopropyl)methanone or (S)-(6-(4-(5-fluoro-2-(tetrahydro-2H-pyran-4-yl)phenyl)piperidin-1-yl)-2-azaspiro[3.4]octan-2-yl)(1-fluorocyclopropyl)methanone]	49%	26 nM	0%	> 25000 nM
Fc1cncc(N2CC3(CC[C@@H](N4CCC(c5cc(F)ccc5OC5CCOCC5)CC4)C3)C2)c1 (single isomer, unassigned) [Example 10A, (R)-6-(4-(5-fluoro-2-((tetrahydro-2H-pyran-4-yl)oxy)phenyl)piperidin-1-yl)-2-(5-fluoropyridin-3-yl)-2-azaspiro[3.4]octane or (S)-6-(4-(5-fluoro-2-((tetrahydro-2H-pyran-4-yl)oxy)phenyl)piperidin-1-yl)-2-(5-fluoropyridin-3-yl)-2-azaspiro[3.4]octane]	60%	5 nM	0%	> 25000 nM
Fc1cncc(N2CC3(CC[C@@H](N4CCC(c5cc(F)ccc5OC5CCOCC5)CC4)C3)C2)c1 (single isomer, unassigned) [Example 10B, (R)-6-(4-(5-fluoro-2-((tetrahydro-2H-pyran-4-yl)oxy)phenyl)piperidin-1-yl)-2-(5-fluoropyridin-3-yl)-2-azaspiro[3.4]octane or (S)-6-(4-(5-fluoro-2-((tetrahydro-2H-pyran-4-yl)oxy)phenyl)piperidin-1-yl)-2-(5-fluoropyridin-3-yl)-2-azaspiro[3.4]octane]	41%	45 nM	0%	> 25000 nM
Fc1ccc(C2CCOCC2)c(C2CCN([C@@H]3CCC4(C3)CN(c3cncnc3)C4)CC2)c1 (single isomer, unassigned) [Example 10C, (R)-6-(4-(5-fluoro-2-(tetrahydro-2H-pyran-4-yl)phenyl)piperidin-1-yl)-2-(pyrimidin-5-yl)-2-azaspiro[3.4]octane or (S)-6-(4-(5-fluoro-2-(tetrahydro-2H-pyran-4-yl)phenyl)piperidin-1-yl)-2-(pyrimidin-5-yl)-2-azaspiro[3.4]octane]	62%	< 0.4 nM	0%	> 25000 nM
